Source: US4012387A, “Benzo-[g]pyrido[2,1-b]quinazolinones” (Warner-Lambert Company, priority 1975, dated 1977)
Read-outs that look alike come from different tables or passages of the source.

Test system: rat passive cutaneous anaphylaxis
Assay: rat passive cutaneous anaphylaxis test (PCA), procedure of Herzig
Format: in vivo
From the text: Mansmann, Eds., John Wiley and Son, N.Y., 1975].
Effective dose 50% inhibition rat passive cutaneous anaphylaxis

[1] = effective dose 50% inhibition, rat PCA, intravenous, read-out: ED50 -PCA (rat) iv.

Row | SMILES | ED50 -PCA (rat) ip. (effective dose 50% inhibition, rat PCA, intraperitoneal) | ED50 [1] [mg/kg] | ED50 -PCA (rat) po. (effective dose 50% inhibition, rat PCA, oral) | ED50 (effective dose 50% inhibition, rat PCA, oral, read-out: ED50 -PCA (rat) po.) [mg/kg] | effectiveness compared with the commercial compound (Intal), i.v. administration (i.v., rat PCA, comparison in words) | activity in rat PCA when given intraperitonially (intraperitoneal, result in words) | ED50 (ip, effective dose 50% inhibition, rat PCA, intraperitoneal, read-out: ED50 -PCA (rat) ip.) [mg/kg] | activity in rat PCA when given orally (oral, result in words)
1 | O=C(O)c1cc(=O)c2c(OCC(O)COc3cccc4oc(C(=O)O)cc(=O)c34)cccc2o1 [Intal, Cromoglycate, reference compound] | inactive | 1 to 2 | inactive |  |  |  |  | 
2 | O=C(O)c1ccc2nc3cc4ccccc4cc3c(=O)n2c1 [Example 1, 6-oxo-6H-benzo[g]pyrido[2,1-b]quinazoline-3-carboxylic acid] |  | 0.015 |  | < 0.1 | many times as effective | active | 0.015 | active
